Experimental data reported in US10517889B2, “Modulators of SMAD7 expression” (Ionis Pharmaceuticals, Inc., priority 2017, dated 2019).
Strand notation (5' to 3'): a small letter for the sugar, then the base; units joined by * are phosphorothioate-linked, units joined directly phosphodiester-linked; [ ] holds rarer units or linkages, { } end groups; capitals alone tell only the bases. k = constrained ethyl (cEt); [5mC] = 5-methylcytosine; d = 2'-deoxy (DNA)

Each substance was assayed on human SMAD7 mRNA (assay: Antisense inhibition of human SMAD7 mRNA expression in Hep3B cells by 3-10-3 cEt gapmers, 10,000 nM, electroporation (Example 2)). Details: Hep3B cells, 10,000 nM antisense oligonucleotide, electroporation, approximately 24 hours, RT-PCR primer probe set RTS5062, relative to untreated control cells.
Type: cell-based
Description: Antisense oligonucleotides were designed to target human SMAD7 mRNA and were tested for their effects on SMAD7 mRNA expression in vitro. The antisense oligonucleotides were tested in a series of experiments that had similar culture conditions, as described below. ION 771576, described in the studies above and which is a 5-10-5 MOE gapmer, was also included in these assays. Cultured Hep3B cells at a density of 20,000 cells per well were transfected using electroporation with 10,000 nM antisense oligonucleotide. After a treatment period of approximately 24 hours, RNA was isolated from the cells and SMAD7 mRNA levels were measured by quantitative real-time PCR. Primer probe set RTS5062 was used to measure human SMAD7 mRNA levels. SMAD7 mRNA levels were adjusted according to total RNA content, as measured by RIBOGREEN®. Results are presented as percent inhibition of SMAD7 mRNA expression, relative to untreated control cells.
The newly designed chimeric antisense oligonucleotides in the Tables below were designed as 3-10-3 cEt gapmers. The gapmers are 16 nucleosides in length, wherein the central gap segment comprises often 2′-deoxynucleosides and is flanked by wing segments on the 5′ direction and the 3′ direction comprising three nucleosides each. Each nucleoside in the 5′ wing segment and each nucleoside in the 3′ wing segment has a cEt sugar modification. The internucleoside linkages throughout each gapmer are phosphorothioate (P═S) linkages. All cytosine residues throughout each gapmer are 5-methylcytosines.
“Start site” indicates the 5′-most nucleoside to which the gapmer is targeted in the human gene sequence. “Stop site” indicates the 3′-most nucleoside to which the gapmer is targeted human gene sequence. […] Some of the oligonucleotides presented were complementary to SMAD7 mRNA sequences RefSeqNo. NM_001190821.1 (designated herein as SEQ ID NO: 3) or RefSeqNo. NM_001190822.1 (designated herein as SEQ ID NO: 4), and are presented in a separate table shown below.
In the case of “790847 (kT*k[5mC]*kT*dT*dA*d[5mC]*dA*dA*dA*dG*dA*dG*dT*kT*kA*kT; antisense) [compound 790847]”, the “% Inhibition” value is reported as 24%.

Same assay, conditions: Hep3B cells, electroporation with 10,000 nM antisense oligonucleotide, approximately 24 hours, RTS5062, percent inhibition of SMAD7 mRNA relative to untreated control cells
“790714 (kA*kG*k[5mC]*d[5mC]*dA*dG*dT*dT*dA*dA*dT*d[5mC]*dA*kT*kT*kA; antisense) [compound 790714]” was tested, and the “% Inhibition” value was 11%. For “790715 (kT*kG*kT*d[5mC]*dA*d[5mC]*d[5mC]*d[5mC]*dG*dT*d[5mC]*dT*dG*kG*kG*k[5mC]; antisense) [compound 790715]”, the “% Inhibition” value was 16%.

Same assay, conditions: Hep3B cells, electroporation with 10,000 nM antisense oligonucleotide, approximately 24 hours, SMAD7 mRNA by RT-PCR (RTS5062), relative to untreated control cells
“798664 (kG*kG*k[5mC]*d[5mC]*dT*dG*d[5mC]*dG*d[5mC]*dT*d[5mC]*d[5mC]*dG*kG*k[5mC]*kT; antisense) [compound 798664]” was tested, and the “% Inhibition” value was 7%. With “798665 (k[5mC]*kA*kG*dT*d[5mC]*dT*d[5mC]*d[5mC]*d[5mC]*dG*dG*dA*dG*kG*k[5mC]*k[5mC]; antisense) [compound 798665]” the “% Inhibition” value was 7%. For “798666 (k[5mC]*kA*kT*dG*d[5mC]*dG*d[5mC]*d[5mC]*dA*dG*dT*d[5mC]*dT*k[5mC]*k[5mC]*k[5mC]; antisense) [compound 798666]”, the “% Inhibition” value was 33%. In the case of “798667 (kT*kG*kG*d[5mC]*dA*dT*dG*d[5mC]*dG*d[5mC]*d[5mC]*dA*dG*kT*k[5mC]*kT; antisense) [compound 798667]”, the “% Inhibition” value is reported as 21%. For “798668 (kT*k[5mC]*k[5mC]*dG*dT*dG*dG*d[5mC]*dA*dT*dG*d[5mC]*dG*k[5mC]*k[5mC]*kA; antisense) [compound 798668]”, the “% Inhibition” value was 45%. In the case of “798669 (k[5mC]*kG*k[5mC]*dT*d[5mC]*d[5mC]*dG*dT*dG*dG*d[5mC]*dA*dT*kG*k[5mC]*kG; antisense) [compound 798669]”, the “% Inhibition” value is reported as 0%. In the case of “798670 (kG*kG*k[5mC]*dG*dG*d[5mC]*dG*dG*d[5mC]*d[5mC]*d[5mC]*dG*dA*kG*kG*kG; antisense) [compound 798670]”, the “% Inhibition” value is reported as 44%. “798671 (antisense kA*kG*k[5mC]*dG*dG*d[5mC]*dG*dG*d[5mC]*dG*dG*d[5mC]*d[5mC]*k[5mC]*kG*kA) [compound 798671]” was tested, and the “% Inhibition” value was 61%.

Same assay, conditions: Hep3B cells, electroporation with 10,000 nM antisense oligonucleotide, approximately 24 hours, primer probe set RTS5062, relative to untreated control cells
With “790695 (kT*kG*kA*dA*dA*dT*dG*dG*dT*dG*d[5mC]*dT*d[5mC]*kT*kG*k[5mC]; antisense) [compound 790695]” the “% inhibition of SMAD7 mRNA expression” value was 62%. “798654 (k[5mC]*k[5mC]*k[5mC]*dT*dG*d[5mC]*dG*d[5mC]*dG*dG*d[5mC]*dT*d[5mC]*kT*k[5mC]*k[5mC]; antisense) [compound 798654]” was tested, and the “% inhibition of SMAD7 mRNA expression” value was 23%. For “798655 (kG*kG*k[5mC]*d[5mC]*d[5mC]*dG*d[5mC]*dG*d[5mC]*d[5mC]*d[5mC]*dT*dG*k[5mC]*kG*k[5mC]; antisense) [compound 798655]”, the “% inhibition of SMAD7 mRNA expression” value was 21%. “798656 (k[5mC]*kG*k[5mC]*dG*dG*d[5mC]*d[5mC]*d[5mC]*dG*d[5mC]*dG*d[5mC]*d[5mC]*k[5mC]*kT*kG; antisense) [compound 798656]” was tested, and the “% inhibition of SMAD7 mRNA expression” value was 10%. In the case of “798657 (k[5mC]*k[5mC]*kG*d[5mC]*dG*d[5mC]*dG*dG*d[5mC]*d[5mC]*d[5mC]*dG*d[5mC]*kG*k[5mC]*k[5mC]; antisense) [compound 798657]”, the “% inhibition of SMAD7 mRNA expression” value is reported as 0%. For “798658 (kA*k[5mC]*k[5mC]*d[5mC]*d[5mC]*dG*d[5mC]*dG*d[5mC]*dG*dG*d[5mC]*d[5mC]*k[5mC]*kG*k[5mC]; antisense) [compound 798658]”, the “% inhibition of SMAD7 mRNA expression” value was 71%. For “798659 (k[5mC]*k[5mC]*k[5mC]*dA*d[5mC]*d[5mC]*d[5mC]*d[5mC]*dG*d[5mC]*dG*d[5mC]*dG*kG*k[5mC]*k[5mC]; antisense) [compound 798659]”, the “% inhibition of SMAD7 mRNA expression” value was 58%. For “798660 (kT*kG*k[5mC]*d[5mC]*d[5mC]*d[5mC]*dA*d[5mC]*d[5mC]*d[5mC]*d[5mC]*dG*d[5mC]*kG*k[5mC]*kG; antisense) [compound 798660]”, the “% inhibition of SMAD7 mRNA expression” value was 38%. For “798661 (kG*kG*k[5mC]*dT*dG*d[5mC]*d[5mC]*d[5mC]*d[5mC]*dA*d[5mC]*d[5mC]*d[5mC]*k[5mC]*kG*k[5mC]; antisense) [compound 798661]”, the “% inhibition of SMAD7 mRNA expression” value was 52%. For “798663 (kT*kG*k[5mC]*dG*d[5mC]*dT*d[5mC]*d[5mC]*dG*dG*d[5mC]*dT*dG*k[5mC]*k[5mC]*k[5mC]; antisense) [compound 798663]”, the “% inhibition of SMAD7 mRNA expression” value was 41%.

Same assay, conditions: Hep3B cells, electroporation, 10,000 nM antisense oligonucleotide, approximately 24 hours, RTS5062, relative to untreated control cells
“790710 (kG*kG*kG*dA*dA*dA*dT*dG*dT*dT*d[5mC]*dT*dA*k[5mC]*k[5mC]*kT; antisense) [compound 790710]” was tested, and the “% inhibition of SMAD7 mRNA expression” value was 15%. With “790719 (kG*kG*kA*d[5mC]*dA*dG*dT*d[5mC]*dT*dG*d[5mC]*dT*dG*kT*kG*kG; antisense) [compound 790719]” the “% inhibition of SMAD7 mRNA expression” value was 86%.

Same assay, conditions: SMAD7 mRNA, Hep3B cells, 10,000 nM antisense oligonucleotide, electroporation, approximately 24 hours, primer probe set RTS5062, relative to untreated control cells
For “790693 (k[5mC]*kA*kA*dA*dG*dT*dA*dT*dA*d[5mC]*d[5mC]*dT*dG*kT*kT*k[5mC]; antisense) [compound 790693]”, the “% Inhibition” value was 45%. In the case of “790696 (k[5mC]*kA*kA*dA*dG*dG*dT*dA*dA*dG*d[5mC]*d[5mC]*dA*kG*k[5mC]*kT; antisense) [compound 790696]”, the “% Inhibition” value is reported as 41%. For “790697 (kA*kT*kT*d[5mC]*dA*dG*dG*dG*dT*dG*dT*d[5mC]*dA*kG*k[5mC]*k[5mC]; antisense) [compound 790697]”, the “% Inhibition” value was 59%. “790701 (kG*kG*kA*dT*dA*d[5mC]*dA*d[5mC]*dT*dT*dA*dA*dT*k[5mC]*kA*kA; antisense) [compound 790701]” was tested, and the “% Inhibition” value was 57%. “790741 (kA*kT*kT*dA*dA*dG*d[5mC]*d[5mC]*d[5mC]*dG*d[5mC]*dT*d[5mC]*kT*k[5mC]*kA; antisense) [compound 790741]” was tested, and the “% Inhibition” value was 30%. “790747 (kG*kT*kA*d[5mC]*dA*dA*dT*d[5mC]*dT*d[5mC]*d[5mC]*dT*dG*kG*kA*kA; antisense) [compound 790747]” was tested, and the “% Inhibition” value was 8%. “790754 (k[5mC]*kT*kA*dA*dG*d[5mC]*dT*dA*d[5mC]*dT*dT*dG*dG*kT*kT*kT; antisense) [compound 790754]” was tested, and the “% Inhibition” value was 38%. “790775 (kT*kA*k[5mC]*dA*dA*dG*dG*dT*dG*dA*dA*dA*dG*kT*kT*kA; antisense) [compound 790775]” was tested, and the “% Inhibition” value was 7%. In the case of “790791 (kG*kG*kG*d[5mC]*dA*d[5mC]*dA*d[5mC]*d[5mC]*dA*d[5mC]*d[5mC]*dT*kG*k[5mC]*k[5mC]; antisense) [compound 790791]”, the “% Inhibition” value is reported as 7%. “790855 (kA*k[5mC]*k[5mC]*dT*dT*dT*dT*d[5mC]*d[5mC]*dG*dG*dT*dA*kT*kT*kT; antisense) [compound 790855]” was tested, and the “% Inhibition” value was 40%. For “790871 (kT*kG*kT*dT*dA*dG*dG*dA*d[5mC]*d[5mC]*dT*dG*dG*kG*kA*kA; antisense) [compound 790871]”, the “% Inhibition” value was 39%. For “790874 (k[5mC]*k[5mC]*kG*dG*dA*dA*dG*dT*d[5mC]*dT*dT*dG*dT*kA*kT*kT; antisense) [compound 790874]”, the “% Inhibition” value was 0%.
